Laboratory results reported in PubChem BioAssay (NCI).
Where “and” joins values, the source holds several entries; their conditions need not be identical. Equal values may be shown once.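 Grown in 96-well plates, cells were treated for 48 hours with each compound at five concentrations. Insufficient inhibition: endpoint recorded as highest concentration tested. Abbreviation: GI50, concentration required for 50% inhibition of growth. TGI denotes the concentration required for complete inhibition of growth.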

What was measured:
Assay in all cases: NCI tumour cell line growth inhibition, 48 h
NCI-H226 lung = test system: NCI-H226 lung
SR leukemia = test system: SR leukemia
HCT-116 colon = test system: HCT-116 colon
MALME-3M melanoma = test system: MALME-3M melanoma
NCI/ADR-RES ovarian = test system: NCI/ADR-RES ovarian
COLO 205 colon = test system: COLO 205 colon
K-562 leukemia = test system: K-562 leukemia
CAKI-1 renal = test system: CAKI-1 renal
UO-31 renal = test system: UO-31 renal
OVCAR-3 ovarian = test system: OVCAR-3 ovarian

SMILES	GI50 (NCI-H226 lung) [µM]	TGI (NCI-H226 lung) [µM]	GI50 (SR leukemia) [µM]	TGI (SR leukemia)	GI50 (HCT-116 colon)	TGI (HCT-116 colon) [µM]	GI50 (MALME-3M melanoma)	TGI (MALME-3M melanoma) [µM]	GI50 (NCI/ADR-RES ovarian)	TGI (NCI/ADR-RES ovarian) [µM]	GI50 (COLO 205 colon)	TGI (COLO 205 colon) [µM]	GI50 (K-562 leukemia)	TGI (K-562 leukemia) [µM]	GI50 (CAKI-1 renal)	TGI (CAKI-1 renal) [µM]	GI50 (UO-31 renal)	TGI (UO-31 renal)	GI50 (OVCAR-3 ovarian) [µM]	TGI (OVCAR-3 ovarian)
NC(=O)NC(=O)CI	6.79	28.2	2.52	7.69 µM	1.39 µM	3.12	1.42 µM	3.32	18.7 µM	41.9	1.91 µM	3.73	1.03 µM	3.6	2.32 µM	5.51	1.68 µM	3.19 µM	1.92	3.45 µM
Cc1ccc(/C=C2\CCOC2=O)cc1	> 100	> 100	> 100	> 100 µM	> 100 µM	> 100	> 100 µM	> 100	> 100 µM	> 100	> 100 µM	> 100	> 100 µM	> 100			41.8 µM	> 100 µM	> 100	> 100 µM
O=Cc1ccc(C(F)(F)F)cc1.[C-]#[O+].[C-]#[O+].[C-]#[O+].[Cr]	21.6	98.4	15.1	46.6 µM	16.7 µM	38.7	26.8 µM	91	28.4 µM	> 100	27.4 µM	> 100	26.2 µM	97.6	24.6 µM	> 100	16 µM	48.5 µM	25.4	> 100 µM
Cc1c2c(nn1-c1ccc(S/N=C3\SCC(=O)CN3c3ccccc3)cc1)-c1ccccc1CC2	9.75	27	1.88	> 50 µM	6.5 µM	15.9	> 50 µM	> 50	14.5 µM	> 50	> 50 µM	> 50	17.6 µM	> 50	18.1 µM	> 50	28.4 µM	> 50 µM	> 50	> 50 µM
O=Nc1c(-c2cccc([N+](=O)[O-])c2)nc2ncccn12	16.2	37	0.218	2.22 µM	3.03 µM	13.3	14.5 µM	29.1	15.9 µM	71.7	6.25 µM	19.9	1.28 µM	4.15	10.4 µM	22.6	5.66 µM	30.3 µM	3.22	12.5 µM
O=C1NC(=NCCc2ccccc2Cl)S/C1=C\c1ccc2ncccc2c1	7.61	> 25	0.622	2.25 µM	0.936 µM	> 25	> 21.3 µM	> 25	7.73 µM	> 25	3.98 µM	> 25	1.1 µM	> 25	3.3 µM	> 14.8	5.13 µM	> 25 µM	5.31	19.8 µM
NCCOc1ccccn1		> 100		> 100 µM		> 100		> 100		> 100		> 100		> 100		> 100		> 100 µM		> 100 µM
Cn1c(=O)c(Cc2ccc(F)cc2F)cc2cnc(NC3CCOCC3)nc21	> 21.1	> 25	> 25	> 25 µM	> 25 µM	> 25	> 25 µM	> 25	> 15.5 µM	> 25	> 25 µM	> 25	> 20.1 µM	> 25	> 19.4 µM	> 25	11.5 µM	> 25 µM	> 25	> 25 µM
Cn1c2ccccc2c2c3c(c4c5ccccc5n(CCCCCC#N)c4c21)C(=O)N(O)C3=O	1.6	7.14	0.333	> 100 µM	0.87 µM	4.14	2.22 µM	7.05	0.873 µM	24.2	2.5 µM	9.09	0.71 µM	> 100	1.37 µM	3.03	0.374 µM	1.97 µM	1.29	7.9 µM
CSC(=S)N/N=C(\C)c1ccccn1	0.335	3.45	< 0.033	6.46 µM	< 0.01 µM	5.28	0.177 µM	9.1	0.0262 µM	15.7	< 0.01 µM	11.9	< 0.01 µM	23.3	0.267 µM	7.25	0.154 µM	11.8 µM	< 0.01	
Cc1nc2cc(O)c(O)cc2cc1Oc1ccc(NC(=O)Nc2ccc(Cl)c(Cl)c2)cc1	11.8	> 32.5	1.56	12.3 µM	2.24 µM	13.6	8.6 µM	26	8.74 µM	> 32.5	10.3 µM	> 32.5	6.93 µM	29.6	4.96 µM	30	6.97 µM	14.9 µM	8.52	19.9 µM
COc1ccc(C2CC(c3cc(OC)c(OC)c(OC)c3)=NN2)cc1 (stereo not drawn)	23.8	> 100	1.01	4.43 µM	3.93 µM	> 100	24.7 µM	> 100	6.67 µM	94.8	4 µM	31	2.66 µM	> 100	7.39 µM	63.5	4.82 µM	> 100 µM	3.74	55.3 µM
COC(=O)c1oc2c(C(=O)/C=C/c3ccc(OC)cc3)c(OCCCN3CCCCC3)ccc2c1C	2.32	6.38	1.45	3.78 µM	1.24 µM	3.02	1.51 µM	3.3	2.31 µM		1.51 µM	3.13	2.6 µM		2.09 µM	4.96	1.6 µM	4.55 µM	1.63	3.72 µM
COc1ccc(Cc2ccccc2C(=O)O)c2ccccc12		> 100		> 100 µM		47.3		59.3		> 100		34.5		> 100		> 100		> 100 µM		47.1 µM
COC(=O)c1ccc2c(c1)nc(-c1ccc(Cl)cc1)n2-c1cc(C(C)(C)C)[nH]n1	4.09	44	3.23	> 100 µM	3.46 µM	12.3	3.25 µM	15.6	2.72 µM	7.35	2.29 µM	6.04	4.2 µM	> 100	2.25 µM	12.8	3.35 µM	44.1 µM	2.35	6.13 µM
Fc1ccc(Nc2nc(Nc3ccc(-c4nc5ccccc5[nH]4)cc3)nc(N3CCCC3)n2)cc1	14.2	34.9	0.927	6.5 µM	1.78 µM	3.52	2.17 µM	4.81	2.89 µM	12.1	1.81 µM	3.73	2.31 µM	5.35	3.01 µM	12.5	3.13 µM	14.4 µM	2.75	6.61 µM
C=C1C(=O)O[C@H]2[C@H]1CC/C(COC(=O)CCC(=O)OC/C1=C/CC[C@@]3(C)O[C@H]3[C@H]3OC(=O)C(=C)[C@@H]3CC1)=C\CC[C@@]1(C)O[C@@H]21	2.46	11.7	0.345	2.52 µM			1.14 µM	2.88	14 µM	40.5	0.455 µM	1.74	0.531 µM	4.34			1.02 µM	2.39 µM	0.599	1.91 µM
O=C(CC1C(=O)Nc2ccccc2S1=O)Nc1cccc(Cl)c1 (stereo not drawn)		> 76.4		22.1 µM		> 67.3		> 84.4		49.8		> 66.1		29.2		55.3		> 89.8 µM		> 79.2 µM
CC1=C(C)C(=O)C(C(C)C2=C(C)C(=O)C(C)=C(C)C2=O)=C(C)C1=O	58.3	> 100	7.35	31.7 µM	10.8 µM	24.8	44.1 µM	> 100	17.9 µM	52	32.6 µM	> 100	13.2 µM	> 100	28.6 µM	> 100	27.6 µM	85.5 µM	21	54 µM
Nc1nc(Cl)nc2c1ncn2C1O[C@H](CO)[C@@H](O)[C@@H]1F (stereo partly drawn)	0.329	37.5	0.387	> 100 µM	0.13 µM	> 100	43.4 µM	> 100	0.0498 µM	> 100	0.523 µM	> 100	3.79 µM	> 100	0.326 µM		0.156 µM	1.24 µM	> 100	> 100 µM
C=C1C(=O)O[C@H]2[C@H]1CC/C(Cn1cc(CCC)nn1)=C\CC[C@@]1(C)O[C@@H]21	12.6	33.4	2.88	26.1 µM	3.98 µM	14.4	4.7 µM	18.4	15.2 µM	33.4	5.22 µM	17.1	3.96 µM	29.8	3.91 µM	16.2	11.1 µM	24.6 µM	3.96	14 µM
CC(C)[C@]12O[C@H]1[C@@H]1O[C@]13[C@]1(O[C@H]1C[C@H]1c4c(C(=O)c5ccccc5)oc(OC(=O)c5ccccc5)c4CC[C@@]13C)[C@@H]2O	0.025	0.554	0.0303		0.0142 µM	> 100	0.0189 µM	0.0498	0.0418 µM	3.42			0.0219 µM		0.0183 µM	50.2	0.0223 µM	10.5 µM	0.0244	0.154 µM
CCOC(=O)C(=Cc1ccccc1Br)C(=O)OCC		8.99		0.723 µM		> 100		8.26		> 100		6.77		13.4		6.83				4.7 µM
Oc1ccc2ccccc2c1/C=N\Nc1ccccn1	2.2	> 41.9	0.357	> 100 µM	0.318 µM	> 39.2			0.281 µM	33.3	27.6 µM	> 100	0.426 µM	> 100	0.212 µM	0.678	0.114 µM	1.31 µM	0.349	> 56.8 µM
C[n+]1c2ccccc2c(NC2CCNCC2)c2[nH]c3ccccc3c21	0.384	2.52	1.7	> 100 µM	0.812 µM	4.53	1.35 µM	3.55	> 100 µM	> 100	0.264 µM	2				7.09	13.9 µM	43.7 µM	0.969	5.87 µM
Cn1c(=O)c(F)c(Nc2ccc(I)cc2F)c2c(=O)n(C[C@@H](O)CO)cnc21			5.04	36.4 µM and > 10 µM	< 0.01 µM and 0.00832 µM	11.5	< 0.01 µM and 0.00177 µM	< 0.01	12.7 µM and > 2.46 µM	> 100	< 0.01 µM and 0.00271 µM		0.172 µM and 0.112 µM	> 84	0.649 µM and 0.139 µM	> 90	0.304 µM and 0.0568 µM	15.4 µM and > 4.09 µM	13.6	40.4 µM and > 3.85 µM
O=C1c2cc3c(cc2-c2c1c1ccc([N+](=O)[O-])cc1c(=O)n2CCCCl)OCO3	0.409	9.09	0.0158	27.8 µM	6.38 µM	> 100			0.0743 µM		0.567 µM	> 100		> 100	0.0268 µM	76.6	0.307 µM	> 100 µM	4.8	> 100 µM
